Measurements from the CheMixHub viscosity set.
± gives the uncertainty stated by the source.

Test: xn = mol fraction of the nth substance listed

CCCC(C)=O + C1CCCC1
viscosity [mPa·s], 101.33 kPa
Conditions	293.15 K	298.15 K	303.15 K
x2 = 0.0411	0.49 ± 0.009	0.463 ± 0.009	0.44 ± 0.008
x2 = 0.0966	0.481 ± 0.009	0.455 ± 0.008	0.431 ± 0.008
x2 = 0.1985	0.471 ± 0.009	0.445 ± 0.008	0.422 ± 0.008
x2 = 0.3214	0.458 ± 0.009	0.433 ± 0.008	0.41 ± 0.008
x2 = 0.3876	0.452 ± 0.008	0.428 ± 0.008	0.406 ± 0.008
x2 = 0.5026	0.443 ± 0.008	0.419 ± 0.008	0.398 ± 0.008
x2 = 0.6097	0.436 ± 0.008	0.414 ± 0.008	0.392 ± 0.008
x2 = 0.6934	0.433 ± 0.008	0.41 ± 0.008	0.39 ± 0.008
x2 = 0.7996	0.429 ± 0.008	0.407 ± 0.008	0.387 ± 0.008
x2 = 0.9054	0.429 ± 0.008	0.406 ± 0.008	0.386 ± 0.008
x2 = 0.9515	0.433 ± 0.008	0.41 ± 0.008	0.389 ± 0.008

CCCC(C)=O + C1CCCCC1
viscosity [mPa·s]
Conditions	293.15 K	298.15 K	303.15 K
101.32 kPa, x2 = 0.1524	–	–	0.474 ± 0.004
101.32 kPa, x2 = 0.2942	–	–	0.496 ± 0.004
101.32 kPa, x2 = 0.3752	–	–	0.507 ± 0.004
101.32 kPa, x2 = 0.4326	–	–	0.517 ± 0.004
101.32 kPa, x2 = 0.5075	–	–	0.532 ± 0.004
101.32 kPa, x2 = 0.5951	–	–	0.555 ± 0.004
101.32 kPa, x2 = 0.7377	–	–	0.607 ± 0.004
101.32 kPa, x2 = 0.8891	–	–	0.695 ± 0.004
101.33 kPa, x2 = 0.0483	0.5 ± 0.009	0.473 ± 0.009	0.447 ± 0.008
101.33 kPa, x2 = 0.0981	0.506 ± 0.009	0.477 ± 0.009	0.452 ± 0.008
101.33 kPa, x2 = 0.1932	0.516 ± 0.009	0.486 ± 0.009	0.458 ± 0.008
101.33 kPa, x2 = 0.296	0.537 ± 0.01	0.504 ± 0.009	0.476 ± 0.009
101.33 kPa, x2 = 0.3957	0.562 ± 0.01	0.528 ± 0.009	0.498 ± 0.009
101.33 kPa, x2 = 0.4987	0.594 ± 0.01	0.554 ± 0.01	0.52 ± 0.009
101.33 kPa, x2 = 0.5982	0.625 ± 0.011	0.591 ± 0.01	0.548 ± 0.01
101.33 kPa, x2 = 0.7002	0.68 ± 0.012	0.632 ± 0.011	0.594 ± 0.01
101.33 kPa, x2 = 0.8051	0.748 ± 0.012	0.694 ± 0.012	0.645 ± 0.011
101.33 kPa, x2 = 0.9024	0.847 ± 0.014	0.781 ± 0.013	0.724 ± 0.012
101.33 kPa, x2 = 0.9503	0.898 ± 0.015	0.826 ± 0.014	0.762 ± 0.013

CCN(CC)CC + C1CCCCC1
303.15 K, 101 kPa
Conditions	viscosity [mPa·s]
x1 = 0.01021	0.8057 ± 0.0088
x1 = 0.01915	0.7913 ± 0.0089
x1 = 0.0299	0.7725 ± 0.0083
x1 = 0.04221	0.7556 ± 0.0079
x1 = 0.04976	0.7402 ± 0.0078
x1 = 0.0618	0.7264 ± 0.0071
x1 = 0.07115	0.7134 ± 0.0074
x1 = 0.07987	0.7009 ± 0.0072
x1 = 0.08947	0.6879 ± 0.0067
x1 = 0.09947	0.6772 ± 0.0063

ClC(Cl)(Cl)Cl + C1CCCCC1
Conditions	viscosity [mPa·s]
298 K, 101 kPa, x1 = 0.2753	0.8903 ± 0.018
298 K, 101 kPa, x1 = 0.3845	0.8916 ± 0.018
298 K, 101 kPa, x1 = 0.4418	0.8924 ± 0.018
298 K, 101 kPa, x1 = 0.4727	0.8928 ± 0.018
298 K, 101 kPa, x1 = 0.58	0.8943 ± 0.018
298 K, 101 kPa, x1 = 0.6707	0.8955 ± 0.018
298 K, 101 kPa, x1 = 0.6805	0.8956 ± 0.018
298 K, 101 kPa, x1 = 0.7701	0.8969 ± 0.018
298 K, 101 kPa, x1 = 0.864	0.8982 ± 0.018
298 K, 101.3 kPa, x1 = 0.1774	0.847 ± 0.008
298 K, 101.3 kPa, x1 = 0.3265	0.831 ± 0.008
298 K, 101.3 kPa, x1 = 0.5278	0.836 ± 0.008
298 K, 101.3 kPa, x1 = 0.6746	0.844 ± 0.008
298 K, 101.3 kPa, x1 = 0.8521	0.86 ± 0.009
298.15 K, 101 kPa, x1 = 0.272	0.858 ± 0.022
298.15 K, 101 kPa, x1 = 0.5295	0.8568 ± 0.022
298.15 K, 101 kPa, x1 = 0.7707	0.867 ± 0.022
298.15 K, 101.33 kPa, x1 = 0.272	0.858 ± 0.023
298.15 K, 101.33 kPa, x1 = 0.5	0.8551 ± 0.023
298.15 K, 101.33 kPa, x1 = 0.5295	0.8568 ± 0.023
298.15 K, 101.33 kPa, x1 = 0.625	0.8594 ± 0.023
298.15 K, 101.33 kPa, x1 = 0.7707	0.867 ± 0.023
318 K, 101.3 kPa, x1 = 0.1636	0.6445 ± 0.024
318 K, 101.3 kPa, x1 = 0.3244	0.6522 ± 0.024
318 K, 101.3 kPa, x1 = 0.5293	0.667 ± 0.025
318 K, 101.3 kPa, x1 = 0.6744	0.6869 ± 0.025
318 K, 101.3 kPa, x1 = 0.8658	0.7148 ± 0.026
